Target: T1, BRM (Homo sapiens, UniProt P51531)
T1 construct: Western Blot Screen of BRM Degradation in SW1573 Cells; endogenous in cells; host or cells: SW1573 cells
Assay: BRM degradation (Dmax and DC50) in SW1573 cells, Western blot screen / In-Cell Western screen
Format: cell-based
Details: overnight (18-20 hours) treatment; for Dmax: read-out: Dmax (%)** (% degraded)
Procedure, shortened: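 SW1573 cells were treated with compound for 18–20 h (final 0.1% DMSO). BRM was quantified either by Western blot of RIPA lysates or by fixed-cell In-Cell Western (LI-COR, 800/680 nm), each normalised to alpha-tubulin, giving Dmax and DC50.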

T1 sequence (P51531 whole entry): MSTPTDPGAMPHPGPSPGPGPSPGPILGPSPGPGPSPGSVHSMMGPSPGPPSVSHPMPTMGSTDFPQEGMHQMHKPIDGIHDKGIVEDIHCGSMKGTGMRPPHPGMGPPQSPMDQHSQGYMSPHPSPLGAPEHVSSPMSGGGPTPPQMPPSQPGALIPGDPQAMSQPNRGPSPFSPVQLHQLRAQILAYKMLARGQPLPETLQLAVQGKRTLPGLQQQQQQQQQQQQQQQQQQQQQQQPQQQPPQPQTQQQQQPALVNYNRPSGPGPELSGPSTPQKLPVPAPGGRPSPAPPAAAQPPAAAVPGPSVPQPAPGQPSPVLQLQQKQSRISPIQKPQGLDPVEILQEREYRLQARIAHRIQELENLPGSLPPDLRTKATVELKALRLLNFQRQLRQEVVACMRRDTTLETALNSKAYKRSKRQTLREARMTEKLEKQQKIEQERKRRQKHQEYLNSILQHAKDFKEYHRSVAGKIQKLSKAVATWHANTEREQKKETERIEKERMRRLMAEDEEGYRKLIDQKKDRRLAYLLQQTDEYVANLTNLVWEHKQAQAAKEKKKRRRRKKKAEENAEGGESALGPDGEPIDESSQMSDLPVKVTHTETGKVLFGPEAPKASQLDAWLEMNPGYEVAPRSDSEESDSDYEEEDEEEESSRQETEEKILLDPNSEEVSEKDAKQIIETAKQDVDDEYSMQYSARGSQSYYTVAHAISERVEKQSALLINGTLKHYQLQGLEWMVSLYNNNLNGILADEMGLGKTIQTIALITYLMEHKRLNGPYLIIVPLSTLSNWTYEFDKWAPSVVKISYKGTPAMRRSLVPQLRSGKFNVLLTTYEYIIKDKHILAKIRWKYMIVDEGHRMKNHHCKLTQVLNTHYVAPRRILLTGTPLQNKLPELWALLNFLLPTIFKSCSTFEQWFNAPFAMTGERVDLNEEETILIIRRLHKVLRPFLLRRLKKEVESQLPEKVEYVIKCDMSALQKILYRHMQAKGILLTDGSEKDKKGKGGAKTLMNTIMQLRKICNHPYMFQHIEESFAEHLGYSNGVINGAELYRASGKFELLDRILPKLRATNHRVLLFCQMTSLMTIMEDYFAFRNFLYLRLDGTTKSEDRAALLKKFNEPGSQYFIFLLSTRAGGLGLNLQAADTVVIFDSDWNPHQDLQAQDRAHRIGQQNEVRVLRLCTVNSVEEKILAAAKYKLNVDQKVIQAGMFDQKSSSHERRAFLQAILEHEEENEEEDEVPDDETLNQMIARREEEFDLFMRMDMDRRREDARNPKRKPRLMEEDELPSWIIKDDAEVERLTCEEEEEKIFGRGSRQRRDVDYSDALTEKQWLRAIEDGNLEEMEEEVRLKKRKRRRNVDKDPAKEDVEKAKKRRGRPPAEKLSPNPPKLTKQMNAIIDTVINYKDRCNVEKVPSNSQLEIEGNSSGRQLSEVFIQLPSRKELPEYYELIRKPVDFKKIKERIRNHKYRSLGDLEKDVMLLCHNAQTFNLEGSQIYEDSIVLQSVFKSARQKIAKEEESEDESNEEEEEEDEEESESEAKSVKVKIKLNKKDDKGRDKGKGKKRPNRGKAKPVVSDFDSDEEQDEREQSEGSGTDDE

Row | Structure (SMILES) | DC50 [nM] | Dmax [%]
1 | Cc1ncsc1-c1ccc([C@H](C)NC(=O)[C@@H]2C[C@@H](O)CN2C(=O)[C@@H](c2cc(N3CCC(CN4CCC(O[C@H]5C[C@H](N6CCC(F)(CN7C8CCC7CN(c7cc(-c9ccccc9O)nnc7N)C8)CC6)C5)CC4)CC3)no2)C(C)C)cc1 [Compound 27, (2S,4R)-4-hydroxy-N-[(1S)-1-[4-(4-methyl-1,3-thiazol-5-yl)phenyl]ethyl]-1-[(2R)-3-methyl-2-{3-[4-({4-[(1r,3r)-3-[4-({3-[3-amino-6-(2-hydroxyphenyl)pyridazin-4-yl]-3,8-diazabicyclo[3.2.1]octan-8-yl}methyl)-4-fluoropiperidin-1-yl]cyclobutoxy]piperidin-1-yl}methyl)piperidin-1-yl]-1,2-oxazol-5-yl}butanoyl]pyrrolidine-2-carboxamide] | < 2.5 | > 75
2 | Cc1ncsc1-c1ccc([C@H](C)NC(=O)[C@@H]2C[C@@H](O)CN2C(=O)C(c2cc(N3CCC(OC(=O)N4CCC(Oc5cc(N6CCN(c7cc(-c8ccccc8O)nnc7N)CC6)ccn5)CC4)CC3)no2)C(C)C)cc1 (stereo partly drawn) [Compound 144, 1-(5-{1-[(2S,4R)-4-hydroxy-2-{[(1S)-1-[4-(4-methyl-1,3-thiazol-5-yl)phenyl]ethyl]carbamoyl}pyrrolidin-1-yl]-3-methyl-1-oxobutan-2-yl}-1,2-oxazol-3-yl)piperidin-4-yl 4-[(4-{4-[3-amino-6-(2-hydroxyphenyl)pyridazin-4-yl]piperazin-1-yl}pyridin-2-yl)oxy]piperidine-1-carboxylate] | 2.5 to 10 | > 75
3 | Cc1ncsc1-c1ccc([C@H](C)NC(=O)[C@@H]2C[C@@H](O)CN2C(=O)[C@@H](c2cc(N3CCC(O[C@H]4CC[C@@H](Oc5cc(N6C7CCC6CN(c6cc(-c8ccccc8O)nnc6N)C7)ccn5)CC4)CC3)no2)C(C)C)cc1 [Compound 80, (2S,4R)-4-hydroxy-N-[(1S)-1-[4-(4-methyl-1,3-thiazol-5-yl)phenyl]ethyl]-1-[(2R)-3-methyl-2-[3-(4-{[(1s,4s)-4-[(4-{3-[3-amino-6-(2-hydroxyphenyl)pyridazin-4-yl]-3,8-diazabicyclo[3.2.1]octan-8-yl}pyridin-2-yl)oxy]cyclohexyl]oxy}piperidin-1-yl)-1,2-oxazol-5-yl]butanoyl]pyrrolidine-2-carboxamide] | < 2.5 | > 75
4 | Cc1ncsc1-c1ccc([C@H](C)NC(=O)[C@@H]2C[C@@H](O)CN2C(=O)[C@@H](c2cc(N3CCC(CN4CCC(O[C@H]5C[C@H](C(=O)N6CCC(N7C8CCC7CN(c7cc(-c9ccccc9O)nnc7N)C8)CC6)C5)CC4)CC3)no2)C(C)C)cc1 [Compound 76, (2S,4R)-4-hydroxy-N-[(1S)-1-[4-(4-methyl-1,3-thiazol-5-yl)phenyl]ethyl]-1-[(2R)-3-methyl-2-{3-[4-({4-[(1r,3r)-3-(4-{3-[3-amino-6-(2-hydroxyphenyl)pyridazin-4-yl]-3,8-diazabicyclo[3.2.1]octan-8-yl}piperidine-1-carbonyl)cyclobutoxy]piperidin-1-yl}methyl)piperidin-1-yl]-1,2-oxazol-5-yl}butanoyl]pyrrolidine-2-carboxamide] | 2.5 to 10 | > 75
5 | CC(NC(=O)[C@@H]1C[C@@H](O)CN1C(=O)[C@@H](c1cc(N2CCC(CN3CCC(O[C@H]4C[C@H](Oc5cc(N6C7CCC6CN(c6cc(-c8ccccc8O)nnc6N)C7)ccn5)C4)CC3)CC2)no1)C(C)C)c1ccc(C#N)c(F)c1 (stereo partly drawn) [Compound 4, (2S,4R)-N-[1-(4-cyano-3-fluorophenyl)ethyl]-4-hydroxy-1-[(2R)-3-methyl-2-{3-[4-({4-[(1r,3r)-3-[(4-{3-[3-amino-6-(2-hydroxyphenyl)pyridazin-4-yl]-3,8-diazabicyclo[3.2.1]octan-8-yl}pyridin-2-yl)oxy]cyclobutoxy]piperidin-1-yl}methyl)piperidin-1-yl]-1,2-oxazol-5-yl}butanoyl]pyrrolidine-2-carboxamide] | < 2.5 | > 75
6 | Cc1ncsc1-c1ccc([C@H](C)NC(=O)C2C[C@@H](O)CN2C(=O)[C@@H](c2cc(N3CCC(CN4CC[C@@H](Oc5cc(N6C7CCC6CN(c6cc(-c8ccccc8O)nnc6N)C7)ccn5)C(F)(F)C4)CC3)no2)C(C)C)cc1 (stereo in doubt) [Compound 53, (2S,4R)-1-[(2R)-2-[3-(4-{[(4R)-4-[(4-{3-[3-amino-6-(2-hydroxyphenyl)pyridazin-4-yl]-3,8-diazabicyclo[3.2.1]octan-8-yl}pyridin-2-yl)oxy]-3,3-difluoropiperidin-1-yl]methyl}piperidin-1-yl)-1,2-oxazol-5-yl]-3-methylbutanoyl]-4-hydroxy-N-[(1S)-1-[4-(4-methyl-1,3-thiazol-5-yl)phenyl]ethyl]pyrrolidine-2-carboxamide] | 2.5 to 10 | > 75
7 | Cc1ncsc1-c1ccc([C@H](C)NC(=O)[C@@H]2C[C@@H](O)CN2C(=O)[C@@H](c2cc(N3CCC(CN4CCC(N[C@H]5C[C@H](Oc6cc(N7C8CCC7CN(c7cc(-c9ccccc9O)nnc7N)C8)ccn6)C5)CC4)CC3)no2)C(C)C)cc1 [Compound 10, (2S,4R)-4-hydroxy-N-[(1S)-1-[4-(4-methyl-1,3-thiazol-5-yl)phenyl]ethyl]-1-[(2R)-3-methyl-2-(3-{4-[(4-{[(1rs,3rs)-3-[(4-{3-[3-amino-6-(2-hydroxyphenyl)pyridazin-4-yl]-3,8-diazabicyclo[3.2.1]octan-8-yl}pyridin-2-yl)oxy]cyclobutyl]amino}piperidin-1-yl)methyl]piperidin-1-yl}-1,2-oxazol-5-yl)butanoyl]pyrrolidine-2-carboxamide] | < 2.5 | > 75
8 | CC(C)[C@@H](C(=O)N1C[C@H](O)C[C@H]1C(=O)N[C@@H](C)c1ccc(-c2ccnn2C)cc1)c1cc(N2CCC(CN3CCC(O[C@H]4C[C@H](N5CCC(C(C)n6cc(C#Cc7cc(-c8ccccc8O)nnc7N)cn6)CC5)C4)CC3)CC2)no1 (stereo partly drawn) [Compound 42, (2S,4R)-4-hydroxy-N-[(1S)-1-[4-(1-methyl-1H-pyrazol-5-yl)phenyl]ethyl]-1-[(2R)-3-methyl-2-{3-[4-({4-[(1r,3r)-3-{4-[1-(4-{2-[3-amino-6-(2-hydroxyphenyl)pyridazin-4-yl]ethynyl}-1H-pyrazol-1-yl)ethyl]piperidin-1-yl}cyclobutoxy]piperidin-1-yl}methyl)piperidin-1-yl]-1,2-oxazol-5-yl}butanoyl]pyrrolidine-2-carboxamide] | < 2.5 | > 75
9 | Cc1ncsc1-c1ccc([C@H](C)NC(=O)[C@@H]2C[C@@H](O)CN2C(=O)[C@@H](c2cc(N3CCC(CN4CC[C@H](OC(=O)N5CCN(c6cc(-c7ccccc7O)nnc6N)CC5)[C@@H](F)C4)CC3)no2)C(C)C)cc1 [Compound 104, (3S,4S)-3-fluoro-1-[(1-{5-[(2R)-1-[(2S,4R)-4-hydroxy-2-{[(1S)-1-[4-(4-methyl-1,3-thiazol-5-yl)phenyl]ethyl]carbamoyl}pyrrolidin-1-yl]-3-methyl-1-oxobutan-2-yl]-1,2-oxazol-3-yl}piperidin-4-yl)methyl]piperidin-4-yl 4-[3-amino-6-(2-hydroxyphenyl)pyridazin-4-yl]piperazine-1-carboxylate] | < 2.5 | > 75

Source: US20250059198A1, “BRM DEGRADING COMPOUNDS AND ASSOCIATED METHODS OF USE” (Arvinas Operations, Inc., priority 2021, published 2025)
